From US8557800B2, “Sphingosine kinase inhibitors” (Apogee Biotechnology Corporation, priority 2005, dated 2013)
Like-named read-outs stand apart in the source and are kept apart here.

Columns and labels:
[1] = Oral pharmacokinetics in mice (PEG400); assay type: in vivo; details: mouse, blood, 100 mg/kg oral gavage in PEG400, female Swiss-Webster mice
Description: Oral pharmacokinetic studies were performed on Compounds 62 and 57. Each compound was dissolved in PEG400 and administered to female Swiss-Webster mice at a dose of 100 mg/kg by oral gavage. Mice were anesthetized and blood was removed via cardiac puncture at 5 minutes, 30 minutes, 1, 2, and 8 hours. Concentrations of the test compounds were determined using liquid-liquid extraction, appropriate internal standards and reverse phase HPLC with UV detection. Control blood samples were run to identify compound-specific peaks. Pharmacokinetic parameters were calculated using the WINNONLIN analysis software package (Pharsight). Non-compartmental and compartmental models were tested, with the results shown in Table 7 derived from the best fit equations.

[2] = test system: C57BL/6 mice, DSS model of IBD; test: Acute DSS-colitis model; assay type: in vivo, mouse; details: 2% DSS, 50 mg/kg oral daily
Description: We have conducted experiments with SK inhibitors using the dextran sulfate sodium (DSS) model of IBD. In these experiments, male C57BL/6 mice were provided with standard rodent diet and water ad libitum. After their acclimation, the animals were randomly divided into groups of 5 or 6 for DSS (40,000 MW from ICN Biomedicals, Inc., Aurora, Ohio)—and drug-treatment. The SK inhibitors were dissolved in PEG400, and given once daily by oral gavage in a volume of 0.1 mL per dose. Dipentum, an FDA-approved anti-colitis drug whose active ingredient, olsalazine, is converted to 5-aminosalicylic acid in vivo, was used as a positive control. The mice were given normal drinking water or 2% DSS and treated orally with an SK inhibitor or Dipentum at a dose of 50 mk/kg daily. The body weight of each animal was measured each day, and the Disease Activity Index (DAI) was scored for each animal on Days 4-6. On Day 6, the animals were sacrificed by cervical dislocation and the entire colon was removed and measured to the nearest 0.1 cm. Portions of the colons were then fixed, sectioned and their histologies were assessed on a blinded basis to determine their Histology Score. Other portions of the colons were used for biochemical analyses of inflammation markers.

SK-OV-3 (ovary) = test: Human tumor cell line panel, sulforhodamine B; assay type: cell-based; details: 48 hours, mean ± sd
[3] = test system: mice, multiple cycles of DSS-induced inflammation; test: Chronic DSS-colitis model (35-day); assay type: in vivo, mouse
Description: FIG. 13. Effects of Compound 62 on the DAI in the chronic DSS-colitis model. Mice received 2 cycles (7 days per cycle) of DSS (1.5% cycle 1 and 1% cycle 2), 2 cycles of normal drinking water and were randomized by DAI on Day 28 into groups of 8 mice. The mice were then treated as follows: No DSS (▪)—normal drinking water and orally dosed with PEG400 every day for 7 days (water control); DSS alone (▴)—drinking water containing 1.5% DSS and orally dosed with PEG daily for 7 days; DSS+Compound 62 (▾)—drinking water containing 1.5% DSS and orally dosed with Compound 62 (50 mg/kg) every day for 7 days; DSS+Dipentum (♦)—drinking water containing 1.5% DSS and orally dosed with Dipentum (50 mg/kg). *p<0.001 versus No DSS group.
A 35-day model of IBD was used to evaluate the effectiveness of the SK inhibitors in mice that experience multiple cycles of DSS-induced inflammation. This chronic model is similar to the acute model, except that the DSS concentration in the drinking water is lower and animals receive periodic exposure to DSS (DSS on days 1-7, water on Days 8-13, DSS on day 14-21, water on Days 22-27 and then DSS until the completion of the study on Day 35). In these experiments, treatment of the mice with an SK inhibitor or Dipentum began on Day 28 and continued daily until the completion of the study. The DAI index was monitored every other day until Day 28 and then daily until Day 35. Animals were sacrificed on Day 35, and changes in the colon length and cytokine profiles were measured.

[4] = test system: male Lewis rats, adjuvant-induced arthritis; test: Adjuvant-induced arthritis model; assay type: in vivo, rat
Description: Adjuvant-induced arthritis is another widely used assay that recapitulates many features of human rheumatoid arthritis, and so is useful in the evaluation of new drug candidates. Age- and weight-matched male Lewis rats (150-170 g) were injected subcutaneously in the tail with 1 mg of Mycobacterium butyricum (Difco, killed dried) suspended in 0.1 ml of light mineral oil. Symptoms of immune reactivity were present after 2 weeks. Responsive rats were randomized into treatment groups, and received oral daily doses (1 ml) of: solvent alone (0.375% Tween-80); 100 mg/kg Compound 62; 35 mg/kg Compound 62; or 5 mg/kg Compound 62, or intraperitoneal injections of indomethacin (5 mg/kg) every other day as a positive control. The severity of disease in each animal was quantified by measurement of the hind paw thickness.

1025LU (melanoma) = test: Human tumor cell line panel, sulforhodamine B; assay type: cell-based; details: 48 hours, mean ± sd
[5] = test system: mouse JC mammary adenocarcimona cell line growing subcutaneously in Balb/c mice
Description: The antitumor activity of the representative SK inhibitors were evaluated using a syngeneic tumor model that uses the mouse JC mammary adenocarcimona cell line growing subcutaneously in immunocompetent Balb/c mice (Lee et al., 2003, Oncol Res 14: 49).
In FIG. 1, Balb/c mice, 6-8 weeks old, were injected subcutaneously with 10^6 JC cells suspended in phosphate-buffered saline. The SK inhibitors Compounds 62 and 57 were dissolved in PEG400 and administered to mice every-other day at a dose of 100 mg/kg. Body weights and tumor volumes were monitored daily. In FIG. 1, tumor growth is expressed as the tumor volume relative to day 1 for each animal.

A-498 (kidney) = test: Human tumor cell line panel, sulforhodamine B; assay type: cell-based; details: A498, 48 hours, mean ± sd

O=C(NCc1ccncc1)C12CC3CC(C1)CC(c1ccc(Cl)cc1)(C3)C2 [Compound 62, 3-(4-Chloro-phenyl)-adamantane-1-carboxylic acid (pyridin-4-ylmethyl)-amide]
Cmax [1]: 55.8 µM | Tmax [1]: 0.5 h | half-life [1]: 7.3 h | AUC(0-inf) ([1]; read-out: AUC0→∞ (μM * h)): 452 µM·h | AUC(0-inf) ([1]; read-out: AUC0→∞ (μg * h/mL)): 172 µg·h/mL | increase in colon myeloperoxidase (MPO) activity [2]: markedly attenuated | colon length ([2]; Day 6): intermediate length | histological examination of colon sections ([2]; Day 6): no or mild crypt damage, no or low levels of inflammatory cell infiltration and no edema in the submucosa | Disease Activity Index (intensity of IBD manifestations) ([2]; Days 4-6): reduced | colonic S1P levels vs DSS-alone ([2]; LC-MS/MS): markedly lower | IC50 (SK-OV-3 (ovary)): 10.5 ± 2.6 µM | colon length ([3]; 50 mg/kg oral daily Day 28-35, DSS alone 4.9±0.2, water 7.8±0.3): 6.2±0.2 cm | increase in DAI ([3]; 50 mg/kg oral daily from Day 28 to Day 35, third DSS exposure): significantly suppressed | colon SK expression (immunohistochemistry) ([3]; DSS mice, 50 mg/kg oral daily): clearly reduced | serum level of IL-6 ([3]; at sacrifice, Day 35): reduced | colon S1P levels ([3]; oral 50 mg/kg daily, 7 days prior to sacrifice): significant reductions | colon levels of pro-inflammatory cytokines TNFα, IL-1β, IFN-γ and IL-6 ([3]; treated during the final DSS cycle): reduced levels | reduction in the arthritic response (hind paw thickness) ([4]; 5 mg/kg oral daily): 13% | reduction in the arthritic response (hind paw thickness) ([4]; 35 mg/kg oral daily): 42% | reduction in the arthritic response (hind paw thickness) ([4]; 100 mg/kg oral daily): 76% | IC50 (1025LU (melanoma)): 33.7 ± 2.7 µM | inhibition of tumor growth relative to controls ([5]; 100 mg/kg oral every-other day in PEG400): 69% | In vivo activity ([5]; JC tumor model, intraperitoneal (ip) or oral (po) administration): active - ip and po | toxicity to the mice in dose-response study ([5]; mouse, in vivo): No toxicity | IC50 (A-498 (kidney)): 12.2 ± 6 µM
